The test system of test [1] is PAF-mediated extravasation. Nature of the test: PAF-induced Extravasation test (test C), measured as a function of hemoconcentration. Format: in vivo. The settings on record: po. An excerpt: Furthermore, the compounds are indicated for use as inhibitors of PAF-mediated extravasation (the extrusion of plasma from the lumen of the blood vessels into the vessel wall and surrounding tissues) measured as a function of hemoconcentration according to the PAF-induced Extravasation test (test C) as described in WO 88/587. From the values obtained an EDso is generated.

Test [2] has as its target T1, platelet activating factor (PAF) receptor (Homo sapiens, UniProt P25105).
T1 construct: endogenous in cells; host or cells: human platelets
In words: Human Platelet PAF Receptor Assay test (test A): inhibition of specific binding of [3H]-PAF to platelets. An excerpt:
The compounds of formula I in free base form or in pharmaceutically acceptable acid addition salt form, hereinafter referred to as "the compounds", are indicated for use as platelet activating factor (PAF) receptor antagonists, as indicated by their ability to inhibit specific binding of [^3H)-PAF to platelets according to the Human Platelet PAF Receptor Assay test (test A) as described in WO 88/587.

Test [3] has as its system PAF-mediated bronchoconstriction. Nature of the test: PAF-induced Pulmonary Inflation Pressure (PIP) Increase test (test B). Format: in vivo. The settings on record: po. On the procedure:
Moreover, in view of their activity as PAF receptor antagonists, the compounds are indicated for use as inhibitors of PAF-mediated bronchoconstriction, which property is evaluated by the PAF-induced Pulmonary Inflation Pressure (PIP) Increase test (test B) as described in WO 88/587, to generate an EDso (dose needed to effect a 50°/o response).

T1 sequence (P25105 whole entry): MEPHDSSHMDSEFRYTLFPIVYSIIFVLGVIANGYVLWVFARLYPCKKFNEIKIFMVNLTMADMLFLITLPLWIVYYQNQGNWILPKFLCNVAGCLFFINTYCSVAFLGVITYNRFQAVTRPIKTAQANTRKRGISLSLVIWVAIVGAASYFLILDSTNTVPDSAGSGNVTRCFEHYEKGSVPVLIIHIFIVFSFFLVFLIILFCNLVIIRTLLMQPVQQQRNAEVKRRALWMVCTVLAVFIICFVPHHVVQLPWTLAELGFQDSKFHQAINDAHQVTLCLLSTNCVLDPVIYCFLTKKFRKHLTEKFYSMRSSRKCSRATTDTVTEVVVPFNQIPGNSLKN

With `COc1cc(CCc2ccc(C3=Cc4ccsc4C4=NCCN34)cc2)cc(OC)c1OC` [Example 1, 2,3-Dihydro-5-[4-[2-(3,4,5-trimethoxyphenyl)ethyl]phenyl]imidazo[1,2-a]thieno[2,3-c]pyridine], the ED50 in test [1] is 1 mg/kg; in test [3] (dose needed to effect a 50% response, read-out: EDso), 1 mg/kg. Besides, the IC50 in test [2] is 0.1 µM.
As for `COc1cc(CCc2ccc(C3=Cc4oc(C)cc4C4=NCCN34)cc2)cc(OC)c1OC` [Example 2, 2,3-Dihydro-8-methyl-5-[4-[2-(3,4,5-trimethoxyphenyl)ethyl]phenyl]imidazo[1,2-a]furo[3,2-c]pyridine], the results for the inhibition at 10 mg/kg in test [1] (at 10 mg/kg p.o.) and in test [3] (at 10 mg/kg p.o.) were 59% and 38%, respectively. This compound returned an IC50 in test [2] of 0.07 µM.

The term IC50 denotes the midpoint of a concentration-inhibition curve. A lower IC50 goes with higher potency. The term inhibition denotes the percentage by which the read-out fell short of the control. Read a high inhibition as a strong effect.

Values taken from EP0341213A2, “5-Aryl-substituted-2,3-dihydro-imidazo [1,2-a]furo[3,2-c]- or thieno[2,3-c]pyridines” (SANDOZ AG, priority 1988, dated 1989).
